Like-named read-outs stand apart in the source and are kept apart here.
Columns and labels:
[1] = cited from earlier work
[2] = Histological analysis of skin samples; format: in vivo, Yorkshire pigs; settings: pig
[3] = Plasma T-20 concentration and pharmacokinetics in porcine model; format: in vivo, Yorkshire pigs; settings: Yorkshire, pig, sc, 90 mg
[4] = T-20 subcutaneous injection twice daily 29 days, n=12

Substance: enfuvirtide
- AUC∞ ([1]; human, in vivo): 55.8 (22%) μg·h/mL
- Cmax ([1]; human, in vivo): 4.59 (32%) μg/mL
- Tmax humans (median) ([1]; human, in vivo): 6.9 h
- Tmax humans (range) ([1]; human, in vivo): 3 to 12 h
- tmax ([1]; human, in vivo): 6.92 (36%) h
- t½ ([1]; human, in vivo): 3.80 (15%) h
- typical human plasma Ctrough ([1]; human, ref Usa, 2012): 3300 ± 1600 ng/mL
- CI ([1]; in vivo): 1.68 (22%) L/h
- Skin irritation: Major, number of Subjects ([2]; in vivo): 1
- Skin irritation: Minor, number of Subjects ([2]; in vivo): 4
- Skin irritation: None, number of Subjects ([2]; in vivo): 7
- Skin irritation: Similar to Eczema, number of Subjects ([2]; in vivo): 1
- Skin irritation: Major+ Necrosis, number of Subjects ([2]; in vivo, sc): 3
- Skin irritation: Major, number of Subjects [2, 4]: 3
- Skin irritation: Minor, number of Subjects [2, 4]: 3
- Skin irritation: None, number of Subjects [2, 4]: 2
- Skin irritation: Similar to Eczema, number of Subjects [2, 4]: 1
- AUC(0-inf) [3]: 43300 ng·h/mL
- Cmax [3]: 6310 ng/mL
- half-life [3]: 3.97 h
- tmax [3]: 2.5 h

— PMC6476176 (Ultrasound in medicine & biology, 2018)
